# Values of other authors in US20230174569A1, “PROCESS PER PREPARING (3a,5a)-20-OXOPREGNAN-3-YL GLYCYL-L-VALINATE HYDROCHLORIDE” ([…] S.R.L., priority 2021, published 2023).
# Where a name gives a salt, the structure may show the parent alone.
# Columns and labels:
# [1] = compared with Brexanolone
# [2] = compared with Brexanolone; remark: listed apart in the source
smiles,measurement,setting,value
"CC(=O)[C@H]1CC[C@H]2[C@@H]3CC[C@H]4C[C@H](OC(=O)[C@@H](NC(=O)CN)C(C)C)CC[C@]4(C)[C@H]3CC[C@]12C [compound I, (3α,5α)-20-oxopregnan-3-yl glycyl-L-valinate hydrochloride]",storage stability in aqueous solutions,[1],better profile than Brexanolone
same,water solubility,[2],better profile than Brexanolone
